Values after ≈ are worked out from the molar mass of the structure shown. Where a SMILES comes first, the peptide text is derived from it. Bridges are numbered along the chain shown (N, C = ends). [ ]: non-standard residue; d: D form. The star is where a group is joined. X5 = CCCCCCCC(=O)CC(=O)*; Dab = NCC[C@H](N)C(=O)O; X9 = CCCCCCC(=O)CC(=O)*; X6 = CCCC(=O)CC(=O)*; X8 = CN(C)CCCCC(=O)*; X4 = COCCCCCC(=O)*
Key:
Type in all cases: cell-based
[1] = system: Klebsiella pneumoniae ATCC BAA-2146 (NDM-1); test: Antibacterial activity, MIC by dish double dilution method; settings: ATCC BAA-2146
Description: (§1) The minimum inhibitory concentration (MIC) was determined by means of dish double dilution method using a Multipoint inoculator according to the CLSI recommended method. The compounds of the present invention (for example, the compounds prepared in the Embodiments) and the reference substances were diluted twice each time with the broth into various desired concentrations, and appropriate amounts were added to the dishes. Agar medium is melted, and then quantitatively injected into the dish containing the drug solution, and mixed. The final concentrations of the compounds of the invention (e.g., the compounds prepared in the Embodiments) and the controls were 0.03, 0.06, 0.125, 0.25 . . . 128 μg/mL, respectively. The test bacteria were cultured overnight with nutrient broth, brain heart infusion or HTM broth. During the tests, the bacterial solutions were diluted appropriately, and the test bacteria (inoculation amount 10^4 CFU/dot) were inoculated on the surface of the drug-containing agar by a multi-point inoculator. After drying, the bacterial was incubated for 18 to 24 hours at 35° C., the results were observed, the minimum concentrations of the compounds of the present invention (for example, the compounds prepared in the Embodiments) and the controls contained in the dishes with no growth of colonies were MICs.
(§2) The strains used in the antibacterial activity experiments were from the American Type Culture Collection (ATCC) and clinical isolates.
(§3) The strains used for the experiments on antibacterial activity included Escherichia coli ATCC 25922, Klebsiella pneumoniae ATCC BAA-2146 (NDM-1), Pseudomonas aeruginosa ATCC 27853, Acinetobacter baumannii ATCC 19606 and Staphylococcus epidermidis ATCC 12228.
(§4) Tested samples: polymyxin derivatives prepared according to the technical scheme of the present invention;
(§5) Controls: polymyxin B sulfate and colistin (polymyxin E sulfate).

[2] = system: Acinetobacter baumannii ATCC 19606; settings: ATCC 19606
Description: as §1, §2, §3, §4, §5

[3] = system: Escherichia coli ATCC 25922; settings: ATCC 25922
Description: as §1, §2, §3, §4, §5

[4] = system: Staphylococcus epidermidis ATCC 12228; settings: ATCC 12228
Description: as §1, §2, §3, §4, §5

[5] = system: Pseudomonas aeruginosa ATCC 27853; settings: ATCC 27853
Description: as §1, §2, §3, §4, §5

Structure (SMILES) | MIC K. pneumoniae ATCC BAA-2146 (NDM-1) [1] | MIC A. baumannii ATCC 19606 [2] | MIC E. coli ATCC 25922 [3] | MIC S. epidermidis ATCC 12228 [4] | MIC P. aeruginosa ATCC 27853 [5]
COCCCCCC(=O)N[C@@H](CCN)C(=O)N[C@H](C(=O)N[C@@H](CCN)C(=O)N[C@H]1CCNC(=O)[C@H]([C@@H](C)O)NC(=O)[C@H](CCN)NC(=O)[C@H](CCN)NC(=O)[C@H](CC(C)C)NC(=O)[C@@H](Cc2ccccc2)NC(=O)[C@H](CCN)NC1=O)[C@@H](C)O [Compound 1, 6-methoxycaproyl-Dab-Thr-Dab-ring(4-10)[Dab-Dab-D-Phe-Lue-Dab-Dab-Thr]] (X4-[Dab]T[Dab][Dab][Dab][dF]L[Dab][Dab]T; lactam 4-C) | 4 µg/mL (≈ 3.36 µM) | 2 µg/mL (≈ 1.68 µM) | 1 µg/mL (≈ 0.839 µM) | >128 µg/mL | 1 µg/mL (≈ 0.839 µM)
CC(C)C[C@@H]1NC(=O)[C@@H](Cc2ccccc2)NC(=O)[C@H](CCN)NC(=O)[C@@H](NC(=O)[C@H](CCN)NC(=O)[C@@H](NC(=O)[C@H](CCN)NC(=O)CCCCN(C)C)[C@@H](C)O)CCNC(=O)[C@H]([C@@H](C)O)NC(=O)[C@H](CCN)NC(=O)[C@H](CCN)NC1=O [Compound 2, N,N-dimethylaminovaleryl-Dab-Thr-Dab-ring(4-10)[Dab-Dab-D-Phe-Lue-Dab-Dab-Thr]] (X8-[Dab]T[Dab][Dab][Dab][dF]L[Dab][Dab]T; lactam 4-C) | 128 µg/mL (≈ 108 µM) | 8 µg/mL (≈ 6.72 µM) | 16 µg/mL (≈ 13.4 µM) | >128 µg/mL | 1 µg/mL (≈ 0.84 µM)
CCCC(=O)CC(=O)N[C@@H](CCN)C(=O)N[C@H](C(=O)N[C@@H](CCN)C(=O)N[C@H]1CCNC(=O)[C@H]([C@@H](C)O)NC(=O)[C@H](CCN)NC(=O)[C@H](CCN)NC(=O)[C@H](CC(C)C)NC(=O)[C@@H](Cc2ccccc2)NC(=O)[C@H](CCN)NC1=O)[C@@H](C)O [Compound 3, 3-oxocaproyl-Dab-Thr-Dab-ring(4-10)[Dab-Dab-D-Phe-Lue-Dab-Dab-Thr]] (X6-[Dab]T[Dab][Dab][Dab][dF]L[Dab][Dab]T; lactam 4-C) | 2 µg/mL (≈ 1.7 µM) | 8 µg/mL (≈ 6.81 µM) | 0.5 µg/mL (≈ 0.425 µM) | 128 µg/mL (≈ 109 µM) | 2 µg/mL (≈ 1.7 µM)

Second part, the compound after the results:

MIC K. pneumoniae ATCC BAA-2146 (NDM-1) [1] | MIC A. baumannii ATCC 19606 [2] | MIC E. coli ATCC 25922 [3] | MIC S. epidermidis ATCC 12228 [4] | MIC P. aeruginosa ATCC 27853 [5] | Structure (SMILES)
1 µg/mL (≈ 0.821 µM) | 2 µg/mL (≈ 1.64 µM) | 1 µg/mL (≈ 0.821 µM) | 16 µg/mL (≈ 13.1 µM) | 2 µg/mL (≈ 1.64 µM) | CCCCCCC(=O)CC(=O)N[C@@H](CCN)C(=O)N[C@H](C(=O)N[C@@H](CCN)C(=O)N[C@H]1CCNC(=O)[C@H]([C@@H](C)O)NC(=O)[C@H](CCN)NC(=O)[C@H](CCN)NC(=O)[C@H](CC(C)C)NC(=O)[C@@H](Cc2ccccc2)NC(=O)[C@H](CCN)NC1=O)[C@@H](C)O [Compound 6, 3-oxononanoyl-Dab-Thr-Dab-ring(4-10)[Dab-Dab-D-Phe-Lue-Dab-Dab-Thr]] (X9-[Dab]T[Dab][Dab][Dab][dF]L[Dab][Dab]T; lactam 4-C)
2 µg/mL (≈ 1.62 µM) | 2 µg/mL (≈ 1.62 µM) | 2 µg/mL (≈ 1.62 µM) | 32 µg/mL (≈ 26 µM) | 4 µg/mL (≈ 3.25 µM) | CCCCCCCC(=O)CC(=O)N[C@@H](CCN)C(=O)N[C@H](C(=O)N[C@@H](CCN)C(=O)N[C@H]1CCNC(=O)[C@H]([C@@H](C)O)NC(=O)[C@H](CCN)NC(=O)[C@H](CCN)NC(=O)[C@H](CC(C)C)NC(=O)[C@@H](Cc2ccccc2)NC(=O)[C@H](CCN)NC1=O)[C@@H](C)O [Compound 7, 3-oxodecanoyl-Dab-Thr-Dab-ring(4-10)[Dab-Dab-D-Phe-Lue-Dab-Dab-Thr]] (X5-[Dab]T[Dab][Dab][Dab][dF]L[Dab][Dab]T; lactam 4-C)
